pIC50: −log10 of the molar value.
Tests used:
[1] = system: Hedgehog Signaling Pathway; assay: SAG-induced differentiation of C3H10T1/2 cells into osteoblastic cells, intracellular alkaline phosphatase activity; format: cell-based, mouse; conditions: 1 μM SAG, 5 days, alkaline phosphatase activity (OD405), read-out: IC50 values of compounds that inhibit Hh pathway
Source text: (§1) The Application of SAG to Induce Pluripotent Mesenchymal Mouse Embryonic Cell C3H/10T1/2 to Differentiate into Osteoblastic Cells for the Determination of the Inhibitory Activity of N-(3-(1H-benzo[d]imidazol-2-yl)-4-chlorophenyl)-2-methyl-4-((2S,6R)-2,6-dimethylmorpholino)benzamide and Analogs on Hedgehog Signaling Pathway
The intracellular alkaline phosphatase activity is a reliable indication of the differentiation process. Therefore this enzymatic activity can be used to monitor the activity of hedgehog pathway inhibitors.
The C3H10T1/2 cells were grown in DMEM medium supplemented with 10% fetal bovine serum (FBS, Hyclone) at 37° C. with 5% CO2. 10000 cells were sown to each well of a 96-well microplate a day before the experiment and grown overnight. At the day of experiment, the inducing medium and inhibitor solutions were prepared as follows: the reference compound and testing compounds were serially diluted 1 to 3 and 1 to 10 in DMSO to seven concentrations with the eighth concentration being DMSO. A 10-fold dilution was prepared by mixing 10 μL of the DMSO dilution with 90 μL of fresh growing medium. […] Pre-sown cells were taken out from incubator and the medium was removed. To each well, 180 μL inducing medium was added and followed immediately with 20 μL of testing or reference compound dilutions. The testing compound concentrations are between 10 μM and 1 nM. The cells were then return to CO2 incubator to grow additional 5 days at 37° C.
(§2) After incubating for 5 days, the cells were taken out and intracellular alkaline phosphatase activity was tested. The alkaline phosphatase activity was measured as follows:
1) Preparation of Substrate Solution:
(§3) Solution A: A 0.5 mM MgCl2 (Sigma Prod. No. M-0250) solution was prepared.
(§4) After the pH value was adjusted to 9.8 with 5 M HCl at 37° C., the total volume was adjusted to 100 mL.
(§5) After it is completely dissolved the total volume was adjusted to 10 mL with the final concentration being 1 mM.
Substrate reaction medium: To 10 mL of solution B, 250 μL of solution A and 200 μL of solution C were added, and mixed well.
2) the Measurement of Intracellular Alkaline Phosphatase Activity:
(§6) After taking out the cells from the incubator, the cell culture medium was removed and cells were washed twice with PBS. 20 μL of lysis solution (0.2% Triton solution) was added to each well. After being shaken for 30 min at room temperature, each well of cells received 80 μL of substrate reaction medium. The microplate was placed immediately into a VariSkan Flashplate reader and absorbance at OD405 was read as background reading. The plate was replaced back to cell culture incubator at 37° C. for additional 30 min and the absorbance was read again using VariSkan Flash plate reader at OD405.
(§7) The data were analyzed by subtracting the background reading from the reading at 30 min, and the obtained numbers were plotted and analyzed with Prism 5 software (GraphPad). The phosphatase activity (calculated OD405) was plotted against the log concentration of testing compound, and the obtained plot was fitted with non-linear curve fitting equation to calculate IC50 values. The curve fitting equation is Y=Bottom+(Top−Bottom)/(1+10^((X−Log IC50))). X is the logarithm of concentration. Y is the measure of alkaline phosphatase activity (OD405).
(§8) The calculated IC50 value is a measurement of the inhibitory activity of compound to Hh pathway.

[2] = system: Hedgehog Signaling Pathway; assay: SHH-induced differentiation of C3H10T1/2 cells into osteoblastic cells, intracellular alkaline phosphatase activity; format: cell-based, mouse; conditions: 10 nM SHH-N, 5 days, alkaline phosphatase activity (OD405), read-out: IC50 values of compounds that inhibit Hh pathway
Procedure: as §1, with “SHH” for “SAG”, “C3H10T1/2” for “C3H/10T1/2”
The C3H10T1/2 cells were grown in DMEM medium supplemented with 10% fetal bovine serum (FBS, Hyclone) at 37° C. with 5% CO2. 10000 cells were sown to each well of a 96-well microplate a day before the experiment and grown overnight. […] The reference compound and testing compounds were serially diluted 1 to 3 and 1 to 10 in DMSO to seven concentrations with the eighth concentration being DMSO. A 10-fold dilution was prepared by mixing 10 μL of the DMSO dilutions with 90 μL of fresh growing medium. Pre-sown cells were taken out from incubator and the medium was removed. To each well, 180 μL of inducing medium containing 10 nM of SHH-N was added and followed immediately with 20 μL of 10× testing or reference compound dilutions. The testing compound concentrations are between 10 μM and 10 nM. The cells were then returned to CO2 incubator to grow additional 5 days at 37° C.
as §2
3) Preparation of Substrate Solution:
as §3, §4, §5
Substrate reaction medium: to 10 mL of solution B, 250 μL of solution A and 200 μL of solution C were added, and mixed well.
4) The Measurement of Intracellular Alkaline Phosphatase Activity:
as §6
as §7, with “Y=Bottom+(Top−Bottom)/(1+10^(X−Log IC50)).” for “Y=Bottom+(Top−Bottom)/(1+10^((X−Log IC50))).”
as §8

[3] = Mus musculus, C3H 10T1/2, 120 h

Compound	pIC50 [1, 3]	pIC50 [2, 3]	pIC50 [1]	pIC50 [2]
Cc1cc(-c2ccc(C(F)(F)F)cc2)ccc1C(=O)Nc1cccc(-c2nc3ccccc3[nH]2)n1 [Example 72, N-(6-(1H-benzo[d]imidazol-2-yl)pyridin-2-yl)-3-methyl-4′-(trifluoromethyl)biphenyl-4-carboxamide]	< 5.00	6.33	–	–
Cc1cc(-c2ccc(C(F)(F)F)cc2)ccc1C(=O)Nc1cccc(-c2cn3cccnc3n2)c1 [Example 55, N-(3-(imidazo[1,2-a]pyrimidin-2-yl)phenyl)-3-methyl-4′-(trifluoromethyl)biphenyl-4-carboxamide]	< 5.00	< 5.00	–	–
Cc1cc(N2CCOCC2)ccc1C(=O)Nc1ccc(Cl)c(-c2nc3ccccc3[nH]2)c1 [Example 30, N-(3-(1H-benzo[d]imidazol-2-yl)-4-chlorophenyl)-2-methyl-4-morpholinobenzamide]	7.06	7.51	–	–
Cc1cc(-c2ccccc2)ccc1C(=O)Nc1ccc(Cl)c(-c2nc3ccccc3[nH]2)c1 [Example 2, N-(3-(1H-benzo[d]imidazol-2-yl)-4-chlorophenyl)-3-methylbiphenyl-4-carboxamide]	7.13	7.85	–	–
Cc1cc(-c2ccc(C(F)(F)F)cc2)ccc1C(=O)Nc1cccc(-c2nc3ccccc3[nH]2)c1Cl [Example 64, N-(3-(1H-benzo[d]imidazol-2-yl)-2-chlorophenyl)-3-methyl-4′-(trifluoromethyl)biphenyl-4-carboxamide]	6.20	5.95	–	–
Cc1cc(N2CCN(C)CC2)ccc1C(=O)Nc1ccc(Cl)c(-c2nc3ccccc3[nH]2)c1 [Example 92, N-(3-(1H-benzo[d]imidazol-2-yl)-4-chlorophenyl)-2-methyl-4-(4-methylpiperazin-1-yl)benzamide]	6.51	7.35	–	–
COc1cc(-c2ccc(C(F)(F)F)cc2)ccc1C(=O)Nc1ccc(Cl)c(-c2nc3ccccc3[nH]2)c1 [Example 15, N-(3-(1H-benzo[d]imidazol-2-yl)-4-chlorophenyl)-3-methoxy-4′-(trifluoromethyl)biphenyl-4-carboxamide]	< 5.00	7.40	–	–
C[C@@H]1CN(c2ccc(C(=O)Nc3ccc(Cl)c(-c4nc5ccccc5[nH]4)c3)c(N)c2)C[C@H](C)O1 [Example 33, N-(3-(1H-benzo[d]imidazol-2-yl)-4-chlorophenyl)-2-amino-4-((2S,6R)-2,6-dimethylmorpholino)benzamide]	7.08	7.66	–	–
N-(3-(imidazo[1,2-a]pyridin-2-yl)-4-chlorophenyl)-3-methyl-4′-(trifluoromethyl)biphenyl-4-carboxamide [Example 67]	–	–	< 5.00	7.17
Cc1cc(-c2ccc(C(F)(F)F)cc2)ccc1C(=O)Nc1ccc(Cl)c(-c2ncc(-c3cccnc3)[nH]2)c1 [Example 51, N-(3-(5-(pyridin-3-yl)-1H-imidazol-2-yl)-4-chlorophenyl)-3-methyl-4′-(trifluoromethyl)biphenyl-4-carboxamide]	< 5.00	7.11	–	–
COc1ccc(-c2ccc(C(=O)Nc3ccc(Cl)c(-c4nc5ccccc5[nH]4)c3)c(C)c2)cc1 [Example 3, N-(3-(1H-benzo[d]imidazol-2-yl)-4-chlorophenyl)-3-methyl-4′-methoxybiphenyl-4-carboxamide]	6.95	7.41	–	–
Cc1cc(N2CCCCC2)ccc1C(=O)Nc1ccc(Cl)c(-c2nc3ccccc3[nH]2)c1 [Example 31, N-(3-(1H-benzo[d]imidazol-2-yl)-4-chlorophenyl)-2-methyl-4-(piperidin-1-yl)benzamide]	6.64	7.36	–	–
O=C1c2ccc(-c3ccccc3)cc2CCN1c1ccc(Cl)c(-c2nc3ccccc3[nH]2)c1 [Example 29, 2-(3-(1H-benzo[d]imidazol-2-yl)-4-chlorophenyl)-6-phenyl-3,4-dihydroisoquinolin-1(2H)-one]	< 5.00	7.14	–	–
C[C@@H]1CN(c2cc(Cl)c(C(=O)Nc3ccc(Cl)c(-c4nc5ccccc5[nH]4)c3)cn2)C[C@H](C)O1 [Example 36, N-(3-(1H-benzo[d]imidazol-2-yl)-4-chlorophenyl)-4-chloro-6-((2S,6R)-2,6-dimethylmorpholino)nicotinamide]	6.44	7.02	–	–
Cc1cc(-c2cccc(F)c2)ccc1C(=O)Nc1ccc(Cl)c(-c2nc3ccccc3[nH]2)c1 [Example 10, N-(3-(1H-benzo[d]imidazol-2-yl)-4-chlorophenyl)-3-methyl-3′-fluorobiphenyl-4-carboxamide]	7.13	8.20	–	–
Cc1cc(-c2ccc(C(F)(F)F)cc2)cc(C)c1C(=O)Nc1ccc(Cl)c(-c2nc3ccccc3[nH]2)c1 [Example 20, N-(3-(1H-benzo[d]imidazol-2-yl)-4-chlorophenyl)-3,5-dimethyl-4′-(trifluoromethyl)biphenyl-4-carboxamide]	< 5.00	7.23	–	–
Cc1cc(-c2ccsc2)ccc1C(=O)Nc1ccc(Cl)c(-c2nc3ccccc3[nH]2)c1 [Example 42, N-(3-(1H-benzo[d]imidazol-2-yl)-4-chlorophenyl)-2-methyl-4-(thiophen-3-yl)benzamide]	6.64	6.47	–	–
O=C(Nc1ccc(Cl)c(-c2nc3ccccc3[nH]2)c1)c1ccc(-c2ccc(C(F)(F)F)cc2)cc1[N+](=O)[O-] [Example 19, N-(3-(1H-benzo[d]imidazol-2-yl)-4-chlorophenyl)-3-nitro-4′-(trifluoromethyl)biphenyl-4-carboxamide]	6.79	7.64	–	–
Cc1cc(-c2ccc(C(F)(F)F)cc2)ccc1C(=O)Nc1cc(Cl)cc(-c2nc3ccccc3[nH]2)c1 [Example 63, N-(3-(1H-benzo[d]imidazol-2-yl)-5-chlorophenyl)-3-methyl-4′-(trifluoromethyl)biphenyl-4-carboxamide]	5.87	7.41	–	–
Cc1cc(-c2ccc(F)cc2)ccc1C(=O)Nc1ccc(Cl)c(-c2nc3ccccc3[nH]2)c1 [Example 4, N-(3-(1H-benzo[d]imidazol-2-yl)-4-chlorophenyl)-3-methyl-4′-fluorobiphenyl-4-carboxamide]	7.07	8.11	–	–
C[C@@H]1CN(c2ccc(C(=O)Nc3ccc(Cl)c(-c4nnc5cnccn45)c3)cn2)C[C@H](C)O1 [Example 58, N-(3-([1,2,4]triazolo[4,3-a]pyrazin-3-yl)-4-chlorophenyl)-6-((2S,6R)-2,6-dimethylmorpholino)nicotinamide]	< 5.00	< 5.00	–	–

From patent publication US10676468B2, “N-(3-heteroarylaryl)-4-arylarylcarboxamides and analogs as hedgehog pathway inhibitors and use thereof” (IMPACT Therapeutics, Inc., priority 2012, dated 2020)
